# According to patent US10294202B2, “Pyrrolidinones as herbicides” (FMC Corporation, priority 2013, dated 2019):
# Tests used:
# [1] = tested on: wheat (winter wheat); assay: Test C pre-/postemergence herbicide test; assay type: in vivo, Triticum aestivum
# Text: (§1) Seeds of plant species selected from blackgrass (Alopecurus myosuroides), ryegrass, Italian (Italian ryegrass, Lolium multiflorum), wheat (winter wheat, Triticum aestivum), galium (catchweed bedstraw, Galium aparine), corn (Zea mays), crabgrass, large (large crabgrass, Digitaria sanguinalis), foxtail, giant (giant foxtail, Setaria faberii), johnsongrass (Sorghum halepense), lambsquarters (Chenopodium album), morningglory (Ipomoea coccinea), nutsedge, yellow (yellow nutsedge, Cyperus esculentus), pigweed (Amaranthus retroflexus), ragweed (common ragweed, Ambrosia elatior), soybean (Glycine max), barnyardgrass (Echinochloa crus-galli), oilseed rape (Brassica napus), waterhemp (common waterhemp, Amaranthus rudis), kochia (Kochia scoparia), oat, wild (wild oat, Avena fatua), surinam grass (Brachiaria decumbens), foxtail, green (green foxtail, Setaria viridis), goosegrass (Eleusine indica), bromegrass, downy (downy bromegrass, Bromus tectorum), nightshade (eastern black nightshade, Solanum ptycanthum), cocklebur (common cocklebur, Xanthium strumarium), cupgrass, woolly (woolly cupgrass, Eriochloa villosa), bermudagrass (Cynodon dactylon), sunflower, (common oilseed sunflower, Helianthus annuus), Russian thistle (Salsola kali) and velvetleaf (Abutilon theophrasti) were planted into a blend of loam soil and sand and treated preemergence with test chemicals formulated in a non-phytotoxic solvent mixture which included a surfactant. At the same time, plants selected from these crop and weed species and also barley (winter barley, Hordeum vulgare), […]), chickweed (common chickweed, Stellaria media), deadnettle (henbit deadnettle, Lamium amplexicaule), and canarygrass (littleseed canarygrass, Phalaris minor) were planted in pots containing Redi-Earth® planting medium (Scotts Company, 14111 Scottslawn Road, Marysville, Ohio 43041) comprising spaghnum peat moss, vermiculite, wetting agent and starter nutrients and treated with postemergence applications of test chemicals formulated in the same manner. Plants ranged in height from 2 to 18 cm (1- to 4-leaf stage) for postemergence treatments. Treated plants and controls were maintained in a greenhouse for 13 to 15 days, after which time all species were compared to controls and visually evaluated. Plant response ratings, summarized in Table C, are based on a scale of 0 to 100 where 0 is no effect and 100 is complete control. A dash (-) response means no test result.
# [2] = tested on: pigweed; assay: Test C pre-/postemergence herbicide test; assay type: in vivo, Amaranthus retroflexus
# Text: as §1
# [3] = tested on: galium; assay: Test C pre-/postemergence herbicide test; assay type: in vivo, Galium aparine; settings: Preemergence; for Galium plant response rating: 31 g ai/ha
# Text: as §1
# [4] = tested on: wheat; assay: Test A pre-/postemergence herbicide test; assay type: in vivo, Triticum aestivum; settings: for Wheat plant response rating: Preemergence, visual rating on 0 to 100 scale (0 no effect, 100 complete control)
# Method in brief: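 Greenhouse pot test with pre- and postemergence application of surfactant-containing solvent formulations. Postemergence plants were 2–10 cm, one- to two-leaf stage. Response scored visually after ~10 days, 0 (no effect) to 100 (complete control).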
# [5] = tested on: foxtail, giant; assay: Test C pre-/postemergence herbicide test; assay type: in vivo, Setaria faberii
# Text: as §1
# [6] = tested on: sedge, umbrella; assay: Test C flooded paddy test; assay type: in vivo, Cyperus difformis; settings: Flood
# Method in brief: (§2)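 Plants grown to the 2-leaf stage; pots flooded to 3 cm above soil and compound applied directly into the paddy water, depth kept throughout. Greenhouse 13 to 15 days, then visual rating vs untreated controls on 0–100 scale (0 no effect, 100 complete control); dash means no result.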
# [7] = tested on: rice; assay: Test C flooded paddy test; assay type: in vivo, Oryza sativa; settings: Flood
# Method in brief: as §2
# [8] = Postemergence, 31 g ai/ha, scale 0 (no effect) to 100 (complete control)
# [9] = Postemergence, 62 g ai/ha, scale 0 to 100 (0 no effect, 100 complete control)
# [10] = Postemergence, 125 g ai/ha, scale 0 to 100 (0 no effect, 100 complete control)
# [11] = Postemergence, 250 g ai/ha, scale 0 to 100 (0 no effect, 100 complete control)
# [12] = Preemergence, 31 g ai/ha, scale 0 to 100, 0 is no effect and 100 is complete control
# [13] = Preemergence, 62 g ai/ha, scale 0 to 100
# [14] = Preemergence, 125 g ai/ha, scale 0 to 100 (0 no effect, 100 complete control)
# [15] = Postemergence, 125 g ai/ha, 0 to 100 scale, 0 no effect, 100 complete control
# [16] = Postemergence, 500 g ai/ha, 0 to 100 scale (0 no effect, 100 complete control)
# [17] = preemergence, 500 g ai/ha, 0 to 100 scale
# [18] = 31 g ai/ha, scale of 0 to 100 where 0 is no effect and 100 is complete control, 13 to 15 days
# [19] = 62 g ai/ha, scale of 0 to 100 where 0 is no effect and 100 is complete control, 13 to 15 days
# [20] = 125 g ai/ha, scale of 0 to 100 where 0 is no effect and 100 is complete control, 13 to 15 days
structure (smiles),measurement,setting,value
O=C1NCC(c2ccccc2)C1C(=O)Nc1ccccc1F (racemic) [Compound 81],"Plant response rating, Wheat",[1]; [8],0
same,"Plant response rating, Wheat",[1]; [9],0
same,"Plant response rating, Wheat",[1]; [10],0
same,"Plant response rating, Wheat",[1]; [11],0
same,Wheat plant response rating,[1]; [12],0
same,"Plant response rating, Wheat",[1]; [13],0
same,"Plant response rating, Wheat",[1]; [14],0
same,"Plant response rating (scale of 0 to 100), Wheat","[1]; Preemergence, 250 g ai/ha",0
same,"Plant response rating, Pigweed",[2]; [8],0
same,"Plant response rating, Pigweed",[2]; [9],0
same,"Plant response rating, Pigweed",[2]; [10],0
same,"Plant response rating, Pigweed",[2]; [11],0
same,Pigweed plant response rating,[2]; [12],0
same,"Plant response rating, Pigweed",[2]; [13],0
same,"Plant response rating, Pigweed",[2]; [14],0
same,"Plant response rating (scale of 0 to 100), Pigweed","[2]; Preemergence, 250 g ai/ha",0
same,Galium plant response rating,"[3]; scale 0 to 100, 0 is no effect and 100 is complete control",0
same,"Plant response rating, Galium","[3]; 62 g ai/ha, scale 0 to 100",0
same,"Plant response rating, Galium","[3]; 125 g ai/ha, scale 0 to 100 (0 no effect, 100 complete control)",0
same,"Plant response rating (scale of 0 to 100), Galium",[3]; 250 g ai/ha,0
same,"Plant response rating, Wheat",[4]; [15],0
same,"Plant response rating, Wheat",[4]; [16],0
same,Wheat plant response rating,[4]; 125 g ai/ha,0
same,"Plant response rating, Wheat",[4]; [17],20
same,"Plant response rating, Foxtail, Giant",[5]; [8],0
same,"Plant response rating, Foxtail, Giant",[5]; [9],0
same,"Plant response rating, Foxtail, Giant",[5]; [10],0
same,"Plant response rating, Foxtail, Giant",[5]; [11],7
same,"Foxtail, Giant plant response rating",[5]; [12],0
same,"Plant response rating, Foxtail, Giant",[5]; [13],17
same,"Plant response rating, Foxtail, Giant",[5]; [14],37
same,"Plant response rating (scale of 0 to 100), Foxtail, Giant","[5]; Preemergence, 250 g ai/ha",73
O=C1NCC(c2ccc(F)cc2)C1C(=O)Nc1ccccc1F (racemic) [Compound 16],"Plant response rating, Wheat",[1]; [13],0
same,"Plant response rating, Wheat",[1]; [14],0
same,"Plant response rating, Pigweed",[2]; [13],0
same,"Plant response rating, Pigweed",[2]; [14],0
same,Galium plant response rating,"[3]; scale 0 to 100 (0 no effect, 100 complete control)",0
same,"Plant response rating, Galium","[3]; 62 g ai/ha, scale 0 to 100",0
same,"Plant response rating, Wheat",[4]; [15],20
same,"Plant response rating, Wheat",[4]; [16],50
same,Wheat plant response rating,[4]; 125 g ai/ha,0
same,"Plant response rating, Wheat",[4]; [17],0
same,"Plant response rating, Sedge, Umbrella",[6]; [18],0
same,"Plant response rating, Sedge, Umbrella",[6]; [19],0
same,"Plant response rating, Sedge, Umbrella",[6]; [20],0
same,"Plant response rating, Sedge, Umbrella","[6]; 250 g ai/ha, scale 0 to 100",0
same,"Foxtail, Giant plant response rating","[5]; Preemergence, 31 g ai/ha, scale 0 to 100 (0 no effect, 100 complete control)",0
same,"Plant response rating, Foxtail, Giant",[5]; [13],70
same,"Plant response rating, Foxtail, Giant",[5]; [14],90
same,"Plant response rating, Foxtail, Giant","[5]; Preemergence, 250 g ai/ha, scale 0 to 100 (0 no effect, 100 complete control)",95
same,"Plant response rating, Rice",[7]; [18],0
same,"Plant response rating, Rice",[7]; [19],0
same,"Plant response rating, Rice",[7]; [20],0
same,"Plant response rating, Rice","[7]; 250 g ai/ha, scale 0 to 100",0
O=C1NCC(c2cccc(C(F)(F)F)c2)C1C(=O)Nc1ccccc1F (racemic) [Compound 3],"Plant response rating, Wheat",[4]; [16],50
same,Wheat plant response rating,[4]; 125 g ai/ha,40
same,"Plant response rating, Wheat",[4]; [17],60
same,"Plant response rating, Sedge, Umbrella",[6]; [18],0
same,"Plant response rating, Sedge, Umbrella",[6]; [19],0
same,"Plant response rating, Sedge, Umbrella",[6]; [20],0
same,"Plant response rating, Sedge, Umbrella","[6]; 250 g ai/ha, scale 0 to 100",50
same,"Plant response rating, Rice",[7]; [18],0
same,"Plant response rating, Rice",[7]; [19],0
same,"Plant response rating, Rice",[7]; [20],0
same,"Plant response rating, Rice","[7]; 250 g ai/ha, scale 0 to 100",0
